Laboratory results from patent US10092574B2, “Inhibitors of polynucleotide repeat-associated RNA foci and uses thereof” (VALORISATION-RECHERCHE, LIMITED PARTNERSHIP, priority 2013, dated 2018).

Key:
MBNL2 exon 7 = test: RT-PCR alternative splicing assay, MBNL2 exon 7; assay type: cell-based, human; details: DM1 myoblasts
Description: Human myoblasts were obtained from the Myosix institute associated with the Association Frangaise contre les Myopathies (AFM). Five primary myoblast lines were obtained as controls, and one line from a DM1 patient with a 3.8 Kb CTG triplet amplification corresponding to approximately 1250 CTG repeats. The human myoblasts are cultivated in HAM-F10 media (SIGMA N6635) with 15% FBS, 1% chick embryo extract, and 390 ng/ml of dexamethasone. One day before adding compounds, 2×10^5 cells were plated in 100 mm plates (for CUGBP1 western blot or RT-PCR alternative splicing assay) or 2×10^4 cells/well are seeded in 12-well plates containing 12 mm round glass coverslips (for FISH to detect RNA foci). […]
For Western blots, CUGBP1 was detected with the 3B1-3D11 monoclonal antibody (mAb) (SIGMA C5112) and GAPDH was detected with the 6C5 mAb (Millipore MAB374). The enhanced chemiluminescence signal (ECL) was acquired and quantified with the ChemiDoc™ MP imaging system (Bio-Rad). […] The alternative splicing of the hnRNPA2/B1 transcript was detected with the primers 5′-[…]-3′ (SEQ ID NO:7) and 5′-[…]-3′ (SEQ ID NO:8). PCR was performed with Taq using standard conditions but the number of amplification cycles was optimized to be in the quantitative range for each gene. […]

Normal or DM1 myoblasts = test: Cytotoxicity assay (Hoescht 33342 / propidium iodide, High Content Screening microscope); assay type: cell-based, human; details: for cellular toxicity: 7 days (FIG. 10)
Description: The cellular toxicity of compounds 15 and 32, and their analogs was also measured using a validated cytotoxicity assay. Normal or DM1 myoblasts were treated with 20 μM of compound or DMSO. The ratio of viable cells was measured with a High Content Screening microscope in live cells treated with Hoescht 33342 (labels all cells) and propidium iodide (labels dead cells). The total number of cells was counted and the number of dead cells was subtracted to obtain the number of viable cells, which is presented as a ratio (drug-treated versus DMSO-treated cells). The percentage of dead cells was also measured using propidium iodide.
The cellular toxicity of the compounds was also measured in a dose-response assay. In this assay, normal (M908) and patient (DM1) myoblasts were treated for 7 days with compound 32 or 196 at concentrations varying from 5 to 60 μM. Cell number and cell death was quantified by High Content Screening microscope, as specified above. […] Indeed, the ratio of viable cells at 20 μM of compound 15 is 0.22 (FIG. 10), while for compound 196, an analogue of compound 15, it is above 1 at the same concentration (FIG. 14C).

luciferase-CUG200 mRNA = test: Dose-response of nuclear export/translation of luciferase-CUG200 reporter mRNA in C2C12 myoblast cell line; assay type: cell-based, murine; details: for EC50: Mus musculus, read-out: EC50 (luciferase from luciferase-CUG200 mRNA)
Description: C2C12 murine myoblast cells and Phoenix retrovirus packaging cells were cultivated in DMEM supplemented with 10% FBS. Phoenix cells were transfected with the desired retroviral vector by the Calcium-Phosphate method and, 48 hours after transfection, retrovirus-containing supernatant was supplemented with polybrene and deposited on cells to infect. C2C12 Tet-Off cell lines were generated by infecting cells with the retrovirus pTet-Off IN (Clontech) and selecting for Doxycycline (Dox)-regulated clones. Cell lines expressing the LacZ-5CUG, LacZ-145CUG, LUC-5CUG or LUC-200CUG transcripts were generated by infecting C2C12 Tet-Off cells with the desired reporter construct in the pRevTRE plasmid (Clontech) and selecting for stable clones with inducible expression. The 3′UTR of human DMPK containing 5 CTG repeats or 200 CTG repeats was cloned downstream of the luciferase or beta-galactosidase open reading frames. The C2C12 cell line(s) are cultivated in media containing 1 ng/ml Dox to repress transcription of the reporter constructs.
The two compounds identified by the screening assay described above, which were named compound 15 and 32, have the structure depicted in FIG. 3. Compound 15 has a para-sulfonamide structure, and compound 32 is a benzyl methylthiophene amide. […] The dose-response effect of candidate drugs 15 and 32 on the nuclear export of luciferase-CUG200 mRNA was assessed in the C2C12 myoblast cell line. The amount of CUG repeat RNA that get exported and properly translated into luciferase in response to treatment with varying concentrations of target drugs was measured in order to determine the dose-response curves.

| Structure (SMILES) | dose-response effect on splicing of MBNL2 mRNA (MBNL2 exon 7; 5 to 60 μM, 7 days (FIG. 12A)) | cellular toxicity (Normal or DM1 myoblasts; 20 μM) | main phenotype at higher concentrations (Normal or DM1 myoblasts; normal (M908) and DM1 myoblasts, 7 days, 5 to 60 μM) | cytotoxicity in dose-response assay (Normal or DM1 myoblasts; normal (M908) and DM1 myoblasts, 7 days, concentration of 20 μM and below (FIGS. 14A-D)) | concentration at which plateau / peak of maximal effect was reached (luciferase-CUG200 mRNA) [µM] | EC50 (luciferase-CUG200 mRNA) [µM] | inclusion of MBNL2 exon 7 (MBNL2 exon 7; 20 μM, 7 days, from 40% (FIG. 8D)) [%] | ratio of viable cells (drug-treated versus DMSO-treated) (Normal or DM1 myoblasts; 20 μM, 7 days (FIG. 10, FIG. 14C)) |
| --- | --- | --- | --- | --- | --- | --- | --- | --- |
| CCCc1c(C(=O)N(Cc2ccccc2)Cc2cccs2)cnn1-c1ccccc1 [Compound 32] | clear dose-response effect | little toxicity | cytostatic effect | little cytotoxicity | 5 | 2.5 | – | – |
| CCCN(CCC)S(=O)(=O)c1ccc(NS(=O)(=O)Cc2ccccc2)cc1 [Compound 15] | – | some toxicity | – | – | 15 | 6.8 | 25 | 0.22 |
